Test results as given in patent publication US7235536B2, “Cellulose sulfate and other sulfated polysaccharides to prevent and treat papilloma virus infection and other infections” (Rush Presbyterian-St. Luke's Medical Center, priority 2000, dated 2007).

What was measured:
[1] = system: human papilloma virus-like particles (VLP's); conditions: Joyce et al. 1999; cited from earlier work
BPV-1 [2] = assay: BPV-1 focus-forming assay, virus preincubated with compound (Table C); format: cell-based, bovine papilloma virus; conditions: C127 cell line
Procedure: In a similar study using the BPV-1 focus forming assay, the effect of the cellulose sulfate and dextran sulfate on BPV was tested. In this study, cellulose sulfate tested was as described above. Dextran sulfate used was from Dextran Products Limited (Lot DSM-122) prepared using dextan of average Mr of about 500,000 (based on viscosity) and is estimated to have a final average Mr greater than about 500,000 and may be about 1 to 1.1 million.
Microbicidal activity of the compounds was tested using the well-characterized BPV-1 focus-forming assay (Dvoretzky, I., R. Shober, S. K. Chattopadhyay, and D. R. Lowy. 1980. A quantitative in vitro focus assay for bovine papilloma virus. Virology 103:369-375), with modifications for microbicide testing (Hermonat, P. L., (1992) supra; Howett, M. K., et al. (1999) supra. The terms inhibiting or microbicidal activity when used are intended to refer broadly to microbe infection and/or microbe inactivating effect.
Aliquots of BPV-1 containing approximately 100-200 focus-forming units were preincubated with dilutions of compounds for 10 min at 37° C. prior to addition to cultures of mouse C127 cells. Cultures of C127 cells were set up in T25 tissue culture flasks (Corning, N.Y.), containing 3×10^5 cells per flask. Virus-compound mixtures in a total of 50 μl were then added to flasks in 1 ml of media, and an additional 3 ml of media added after 24 hrs culture. Media was changed every 3-4 days for a period of 2 weeks. Foci were enumerated following staining of the monolayer with crystal violet and counting stained foci microscopically. Each concentration of compound was tested in duplicate, and the mean±SD of foci number for the preincubation virus-drug concentration for each compound is shown below as Table C.
Clones were derived from the parental C127 cell line because of the consistent failure of BPV-1 to induce foci following several cell passages of the uncloned parental cell line. One clone, labeled C127-D10, which produced foci upon BPV-1 infection, was chosen for a repeat testing of the compounds. When this clone was tested for microbicidal activity, less compound was required to achieve high reduction in BPV-1-induced foci when compared to the uncloned parental-C127 cells.

BPV-1 [3] = assay: BPV-1 focus-forming assay, cells pre-incubated with compound and washed before virus (Table D); format: cell-based, bovine papilloma virus; conditions: for Average ± standard deviation (foci/well): C127-D10 cells, washed before virus
Procedure: Microbicidal activity of compounds was also tested by pre-incubation of cells with compounds followed by addition of virus to compound-coated C127 cells. In these experiments, dilutions of compounds were added to cultures of C127 cells, incubated for 1 hr at 37° C., washed 3 times with media to remove unbound compound, prior to addition of approximately 100 focus-forming units of BPV-1. The cultures were incubated for an additional hour, washed three times to remove unbound virus, then the incubation was continued for two weeks with media changes every 3-4 days and foci counted as described above.
Pre-incubation of C127-D10 cells with compounds prior to addition of BPV-1 was tested to determine whether the microbicidal effects of CS and DS extended to a blockage of virus interaction with cell surfaces. In these experiments, titrations of compounds were added to cell cultures followed by washing away unbound reagent prior to addition of virus. After a one-hour incubation with virus, unbound virus was removed by washing and the cultures monitored for foci after two weeks.

HPV-11 = assay: RT-PCR ELISA for transient infection of human A431 cells, HPV-11; format: cell-based, human papilloma virus; conditions: with virus (HPV-11)
Procedure: (§1) Cellulose sulfate and dextran sulfate were each prepared as a 2 mg/ml solution in 0.9% NaCl and tested for microbicidal activity using the in vitro HPV transient infection assay originally described by Smith and colleagues (Smith, L. H., C. Foster, M. E. Hitchcock, and R. Isseroff. 1993. In vitro HPV-11 infection of human foreskin. J. Invest. Dermatol. 101:292-295) with some modifications (Ludmerer, S. W., W. L. McClements, X. M. Wang, J. C. Ling, K. U. Jansen, and N. D. Christensen. 2000. HPV11 mutant virus-like parties elicit immune responses that neutralize virus and delineate a novel neutralizing domain. Virology 266:237-245). An ELISA-based read-out of Optical Density (OD) values using alkaline phosphatase cleavage of the substrate p-nitrophenyl phosphate was also used to measure HPV infection as described below.
(§2) A modification of the RT-PCR assay that incorporates an ELISA-based read-out (Boehringer-Mannheim) was also included to assess microbicidal activity. Replicate cell cultures of A431 cells were infected with an aliquot of infectious HPV virions as described above. After 4 days of culture, cells were harvested and RNA extracted. RNA was subjected to RT using downstream anti-sense (reverse) primers for HPV-11 or HPV-40 and β-actin (as a control/housekeeping cellular transcript) to initiate cDNA synthesis. The cDNA was processed through 2 sets of 30 cycles of PCR amplification using nested primers: the second set of cycles used digoxygenin (DIG)-dUTP to label the PCR products with DIG. DIG-labeled PCR products were denatured then renatured together with a biotinylated oligonucleotide specific for the targeted PCR product. Biotinylated products were detected in ELISA with plates coated with streptavidin (to capture the biotinylated target PCR product) then anti-DIG antibody and substrate. Labeled PCR products were added directly to ELISA plates, or titrated at 10-fold dilutions in duplicate for each cell culture for each virus dilution.

HPV-40 = assay: RT-PCR ELISA for transient infection of human A431 cells, HPV-40; format: cell-based, human papilloma virus; conditions: with virus (HPV-40)
Procedure: as §1
The RT-PCR assay to detect HPV-40 infection was designed similarly for the detection of HPV-11 infection as described above.
as §2
The microbicidal activity was assessed either as the detection of ethidium stained PCR products or as an ELISA-based read-out as described above. […] An initial experiment was conducted to test the specificity of the ELISA-based RT-PCR assay using HPV-11 and HPV-40 infection of A431 cells (Table E).

papillomaviruses = conditions: literature; cited from earlier work
[4] = 100 μg/ml at viral pretreatment

In the case of heparin [reference compound], the “binding of VLP's to HaCaT cells” value [1] is listed as “inhibited”.
For Dextran sulfate, the “inhibition of papilloma virus infectivity” value (BPV-1 [2]; 100 μg/ml) was “moderate inhibition”, the “inhibition of papilloma virus infectivity” value (BPV-1 [2]; 1 mg/ml) was “very high inhibition” and the “Average ± standard deviation (foci/well)” value (BPV-1 [3]; 10 μg/ml) was 31 ± 16.9 foci/well. The “reduction of BPV-1-induced foci” value (BPV-1 [3]; 10 μg/ml, cells pre-treated, washed) was “substantial reduction in foci”, the “Average ± standard deviation (foci/well)” value (BPV-1 [3]; 100 μg/ml) was 15 ± 4.6 foci/well and the “Average ± standard deviation (foci/well)” value (BPV-1 [3]; 1,000 μg/ml) was 4 ± 2.6 foci/well. For the same substance, the “Average ± standard deviation (foci/well)” value (BPV-1 [3]; 10,000 μg/ml) was 0 foci/well, the “Mean (SD) of O.D. reading for RT-PCR ELISA, HPV-11 probe” value (HPV-11; 10 μg/ml at viral pretreatment) was 0.023 (0.000) O.D and the “Mean (SD) of O.D. reading for RT-PCR ELISA, HPV-11 probe” value (HPV-11; [4]) was 0.035 (0.000) O.D. The “Mean (SD) of O.D. reading for RT-PCR ELISA, HPV-40 probe” value (shortened to “Mean (SD) … HPV-40 probe”) (HPV-40; 10 μg/ml at viral pretreatment) was 0.042 (0.007) O.D, the “Mean (SD) … HPV-40 probe” value (HPV-40; [4]) was 0.375 (0.073) O.D and the “Mean (SD) … HPV-40 probe” value (HPV-40; 1000 μg/ml at viral pretreatment) was 0.006 (0.007) O.D. For the same substance, the “binding of VLP's to HaCaT cells” value [1] was “inhibited”.
For nonoxynol-9, the “microbicidal activity against papillomaviruses” value (papillomaviruses) is listed as “ineffective”.
